For orientation: IC50 means the concentration at which inhibition is half-maximal. Read a high IC50 as lower potency.

For the experiment, the system named is NCI-H295R. As to the kind of experiment: IC50 (antiproliferative, ATP content). The settings on record: 48 h. An outline of the steps: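 Adrenocortical carcinoma cells in 1536-well plates (1500 per well, serum-free DMEM plus ITS, overnight culture) were exposed for 48 h at 37 °C, 5% CO2 to pin-transferred compounds at 8 final concentrations ranging 0.6 nM to 46 µM. ATP content was then read as CellTiter-Glo luminescence and normalised to vehicle and positive-control wells. The IC50 came from logistic curve fits, and any compound lacking a concentration response was recorded as above the top dose.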
`Cc1nnc(NS(=O)(=O)c2ccc(N)cc2)s1` returned an IC50 greater than 46 µM.

Compound `CC(O)COc1ccccc1` (configuration not stated) had an IC50 greater than 46 µM.

`O=C2N1[C@]([C@@]([H])2N)([H])SC(C)(C)[C@@H]1[C@@](O)=O` registered an IC50 greater than 46 µM.

`CCN(CC)CCNC(=O)c1cc(Cl)c(N)cc1OC` had an IC50 greater than 46 µM.

On to `CN1CCN(C2=Nc3ccccc3Oc3ccc(Cl)cc32)CC1.O=C(O)CCC(=O)O`, for which the half-inhibitory concentration (IC50) is greater than 46 µM.

As to `O=C(CCCN1CCN2CCCC2C1)c1ccc(F)cc1` (configuration not stated), the half-inhibitory concentration (IC50) is greater than 46 µM.

The compound `C=CC[N@@+]1(C)CC[C@]23c4c5ccc(O)c4O[C@H]2C(=O)CC[C@@]3(O)[C@H]1C5.[I-]` had an IC50 greater than 46 µM.

As to `CC(O)C(=O)O.CCCCCCCCCCCCCCNCCO`, the IC50 is greater than 46 µM.

Regarding `O=S(=O)(O)c1cc(I)c(O)c2ncccc12`, the IC50 is greater than 46 µM.

The compound `C=Cc1ccc(S(=O)(=O)[O-])cc1.[Na+]` showed an IC50 greater than 46 µM.

Regarding `CCN(CC)Cc1cc(Nc2ccnc3cc(Cl)ccc23)ccc1O.Cl.Cl.O.O`, the IC50 was greater than 46 µM.

In the case of `NC(=O)OCCCc1ccccc1`, the IC50 is greater than 46 µM.

`O=C(O)c1ccccc1C(=O)Nc1ccc(S(=O)(=O)Nc2nccs2)cc1` displayed an IC50 greater than 46 µM.

`OC(=O)[C@@H](N)C\C2=C\Nc1ccc(O)cc12` returned an IC50 greater than 46 µM.

`O=C([O-])c1cc(N=Nc2ccc(O)c(C(=O)[O-])c2)ccc1O.[Na+].[Na+]` gave a concentration for half-maximal inhibition (IC50) greater than 46 µM.

As to `Cc1cccc(C)c1NC1=NCCCS1`, the IC50 was greater than 46 µM.

For `O=C1CCc2cc(OCCCCc3nnnn3C3CCCCC3)ccc2N1`, the IC50 is greater than 46 µM.

Compound `CCCCCCCCCCCCCCCCCC(=O)O` had a concentration for half-maximal inhibition (IC50) greater than 46 µM.

`C[S+](C)CCC(N)C(=O)O.[Cl-]` (configuration not stated) displayed an IC50 greater than 46 µM.

Regarding `O=c1[nH]cc(N(CCCl)CCCl)c(=O)[nH]1`, the concentration for half-maximal inhibition (IC50) is greater than 46 µM.

In the case of `COc6cc7N1C(=O)CC2OC\C=C5\CN3CC[C@@]4(C1[C@H]2[C@H]5C[C@H]34)c7cc6OC` (some centres not stated), the IC50 was greater than 46 µM.

The compound `Nc1ccc(S(=O)(=O)Nc2cnc3ccccc3n2)cc1` displayed an IC50 greater than 46 µM.

With `C[C@H](Cc1ccc(O)c(O)c1)[C@@H](C)Cc1ccc(O)c(O)c1`, the half-inhibitory concentration (IC50) is greater than 46 µM.

Turning to `Cc1c(C(N)=O)cc([N+](=O)[O-])cc1[N+](=O)[O-]`, the IC50 is greater than 46 µM.

`CCC(C)(Oc1ccc(C2(c3ccc(OC(C)(CC)C(=O)O)cc3)CCCCC2)cc1)C(=O)O` (configuration not stated) yielded an IC50 greater than 46 µM.

Compound `CC(C)=CCC/C(C)=C/CO` came in with an IC50 greater than 46 µM.

In the case of `CC(N)C(=O)OC(C)(C)Cc1ccc(Cl)cc1` (configuration not stated), the IC50 is greater than 46 µM.

The compound `Nc1nc(=O)c2nc(CNc3ccc(C(=O)N[C@@H](CCC(=O)O)C(=O)O)cc3)cnc2[nH]1` registered an IC50 greater than 46 µM.

Compound `CC(=O)NC[C@H]1CN(c2ccc(N3CCOCC3)c(F)c2)C(=O)O1` had an IC50 greater than 46 µM.

`O=C(COc1ccc(Cl)cc1)OCCNC12CC3CC(CC(C3)C1)C2` came in with an IC50 greater than 46 µM.

On to `Cc1nc(C)c(Cl)c(O)c1Cl`, for which the IC50 was greater than 46 µM.

`CC(=O)O[C@H]1C[C@@H]2CC[C@@H]3[C@H](CC[C@@]4(C)[C@H]3C[C@H]([N+]3(C)CCCCC3)[C@@H]4OC(C)=O)[C@@]2(C)C[C@@H]1[N+]1(C)CCCCC1.[Br-].[Br-]` displayed an IC50 greater than 46 µM.

`CC(=O)N[C@H]1[C@@H](O[C@@H]2C(C(=O)[O-])C[C@@H](O[C@H]3[C@H](C)[C@@H](NS(=O)(=O)O)[C@@H](OC4C(C(=O)[O-])O[C@@H](OC5[C@H]6CO[C@H](O6)[C@H](NS(=O)(=O)[O-])[C@H]5O)[C@H](O)[C@H]4O)O[C@@H]3COS(=O)(=O)O)[C@H](O)[C@H]2O)O[C@H](COS(=O)(=O)O)[C@@H](O[C@@H]2OC(C(=O)[O-])=C[C@H](O)[C@H]2OS(=O)(=O)O)[C@@H]1O.[Na+].[Na+].[Na+].[Na+]` (some centres not stated) yielded an IC50 greater than 46 µM.

Consider `CCCOC(=O)c1ccccc1O`, for which the IC50 is greater than 46 µM.

`Cc1c(Cl)cccc1Nc1ncccc1C(=O)O` registered an IC50 greater than 46 µM.

In turn, `O=C(C1=C2CCCC1)N(COC([C@H]3C([C@@H]3/C=C(C)\C)(C)C)=O)C2=O` yielded an IC50 greater than 46 µM.

In turn, `CCCC(C)C1(CC)C(=O)N=C([S-])NC1=O.[Na+]` (configuration not stated) gave an IC50 greater than 46 µM.

In turn, `CCN(CC)CCOC[C@H]1O[C@@H](O)[C@H](OCCN(CC)CC)[C@@H](O)[C@@H]1O` had an IC50 greater than 46 µM.

`CNC[C@H](O)[C@@H](O)[C@@H](O)[C@H](O)CO.Cc1c(Nc2ncccc2C(=O)O)cccc1C(F)(F)F`: the IC50 was greater than 46 µM.

In turn, `C[C@@H]1[C@H](O)[C@@H](C)/C=C/C=C/C=C/C=C/C=C/C=C/C=C/[C@H](O[C@@H]2O[C@H](C)[C@@H](O)[C@H](N)[C@@H]2O)C[C@@H]2O[C@](O)(C[C@@H](O)C[C@@H](O)[C@H](O)CC[C@@H](O)C[C@@H](O)CC(=O)O[C@H]1C)C[C@H](O)[C@H]2C(=O)O` came in with an IC50 greater than 46 µM.

In the case of `CN[C@@H]1[C@@H](O)[C@@H](O[C@@H]2[C@@H](O)[C@H](O[C@H]3O[C@H](CN)[C@@H](O)[C@H](O)[C@H]3O)[C@@H](N)C[C@H]2NC(=O)C(O)CN)OC[C@]1(C)O.O=S(=O)(O)O` (some centres not stated), the IC50 was greater than 46 µM.

Compound `FC(F)(F)COCC(F)(F)F` showed a 50% inhibitory concentration (IC50) greater than 46 µM.

The compound `N=C(N)NCCN1CCCCCCC1.O=S(=O)(O)O.O=S(=O)(O)O` came in with an IC50 greater than 46 µM.

Compound `F[C@]1([C@](C)2C=C3)[C@@H](O)C[C@@]([C@]([C@@](CO)=O)(O)[C@H]4C)(C)[C@](C4)([H])[C@@]([H])1CCC2=CC3=O` had a 50% inhibitory concentration (IC50) greater than 46 µM.

Compound `COc1ccc(OC)c(C(O)C(C)N)c1.Cl` (configuration not stated) showed an IC50 greater than 46 µM.

The compound `CC(O)CCCCn1c(=O)c2c(ncn2C)n(C)c1=O` (configuration not stated) registered an IC50 greater than 46 µM.

`CCc1ncnc2cc(OC)c(OC)cc12` came in with a concentration for half-maximal inhibition (IC50) greater than 46 µM.

`CC[N+](CC)(CC)CC.[Cl-]` registered an IC50 greater than 46 µM.

Compound `COc1ccc2c(c1)C(=O)N(CCc1ccc(S(=O)(=O)NC(=O)NC3CCCCC3)cc1)C(=O)C2(C)C` yielded a 50% inhibitory concentration (IC50) greater than 46 µM.

Turning to `CC[C@H]1OC(=O)[C@H](C)[C@@H](O[C@H]2C[C@@](C)(OC)[C@@H](O)[C@H](C)O2)[C@H](C)[C@@H](O[C@@H]2O[C@H](C)C[C@H](N(C)C)[C@H]2O)[C@](C)(O)C[C@@H](C)C(=NOCOCCOC)[C@H](C)[C@@H](O)[C@]1(C)O`, the IC50 was greater than 46 µM.

In the case of `COc1cc2c(cc1OC)[C@@H](c1ccccc1)CN(C)CC2.O=C(O)/C=C\C(=O)O`, the concentration for half-maximal inhibition (IC50) was greater than 46 µM.

Compound `Cl.NNc1nncc2ccccc12` gave an IC50 greater than 46 µM.

Turning to `C[N+]1(C)CCCC(OC(=O)C(O)(c2ccccc2)c2ccccc2)C1.[Br-]` (configuration not stated), the IC50 is greater than 46 µM.

Regarding `OC(O)C(Cl)(Cl)Cl`, the IC50 is greater than 46 µM.

As for `CCN(CCCc1ccccc1)CCCc1ccccc1.O=C(O)CC(O)(CC(=O)O)C(=O)O`, the IC50 is greater than 46 µM.

`CS(=O)(=O)c1ccc([C@@H](O)[C@@H](COC(=O)CN)NC(=O)C(Cl)Cl)cc1.Cl`: the IC50 was greater than 46 µM.

Regarding `CC[C@@H](C)[C@H](N)C(=O)O`, the IC50 is greater than 46 µM.

As to `C/14=C(/C[C@H]([C@H]2[C@H]3[C@](CC[C@H]\12)([C@@](C#C)(O)CC3)C)C)CC(CC4)=O`, the IC50 was greater than 46 µM.

Compound `CCCCC(CC)COC(=O)C=Cc1ccc(OC)cc1` (configuration not stated) yielded an IC50 greater than 46 µM.

Turning to `CC1=Nc2ccc(Cl)cc2S(=O)(=O)N1`, the IC50 is greater than 46 µM.

The compound `COc1ccc(/C=N/NC(=O)c2ccncc2)cc1OC` registered a half-maximal inhibitory concentration (IC50) greater than 46 µM.

Turning to `CCC1(c2ccccc2)C(=O)NC(=O)N(C)C1=O` (configuration not stated), the IC50 is greater than 46 µM.

As for `C[N+]1([O-])[C@@H]2CC[C@H]1C[C@@H](OC(=O)C(CO)c1ccccc1)C2.Cl` (some centres not stated), the concentration for half-maximal inhibition (IC50) is greater than 46 µM.

Compound `CCN(CC)S(=O)(=O)c1ccc(C(=O)O)cc1` returned an IC50 greater than 46 µM.

In turn, `Cc1ccccc1-n1c(C)nc2ccccc2c1=O` came in with an IC50 greater than 46 µM.

`CCc1c2c(nc3ccc(OC(=O)N4CCC(N5CCCCC5)CC4)cc13)-c1cc3c(c(=O)n1C2)COC(=O)[C@]3(O)CC.Cl`: the IC50 is greater than 46 µM.

`COc1cc(C(=S)N2CCOCC2)cc(OC)c1OC` came in with a 50% inhibitory concentration (IC50) greater than 46 µM.

For the compound `O=C1O[C@H](CO)[C@@H](O)[C@H](O)[C@H]1O`, the IC50 was greater than 46 µM.

For `O=C(O)CCc1nc(-c2ccccc2)c(-c2ccccc2)o1`, the IC50 was greater than 46 µM.

`CCCOC(C(=O)OC1CCN(C)CC1)(c1ccccc1)c1ccccc1.Cl` showed an IC50 greater than 46 µM.

Regarding `O=S(=O)(O)NC1CCCCC1`, the IC50 is greater than 46 µM.

`CC(C)(C)NCC(O)c1ccccc1Cl.Cl` (configuration not stated) showed an IC50 greater than 46 µM.

Compound `Cn1c(=O)c2c(ncn2CCO)n(C)c1=O` had an IC50 greater than 46 µM.

For `C=C1c2c(Cl)ccc(O)c2C(=O)C2=C(O)[C@]3(O)C(=O)C(C(N)=O)=C(O)[C@@H](N(C)C)[C@@H]3[C@@H](O)[C@H]12.O=C(O)c1cc(S(=O)(=O)O)ccc1O`, the IC50 was greater than 46 µM.

In the case of `CCOc1ccc(/N=C(\C)Nc2ccc(OCC)cc2)cc1`, the IC50 was greater than 46 µM.

In turn, `CCCCCCCCCCCCCCCCCC(=O)OCC(O)CO` (configuration not stated) yielded an IC50 greater than 46 µM.

As for `CCCN1C[C@H](CSC)C[C@@H]2c3cccc4[nH]cc(c34)C[C@H]21.CS(=O)(=O)O`, the IC50 is greater than 46 µM.

The compound `O=c1[nH]c(=O)n([C@H]2C[C@H](O)[C@@H](CO)O2)cc1/C=C/Br` came in with a half-maximal inhibitory concentration (IC50) greater than 46 µM.

Compound `COc1c(N2C[C@@H]3CCCN[C@@H]3C2)c(F)cc2c(=O)c(C(=O)O)cn(C3CC3)c12.Cl` displayed an IC50 greater than 46 µM.

`CCOc1ccc2ccccc2c1C(=O)N[C@@H]1C(=O)N2[C@@H]1SC(C)(C)[C@@H]2C(=O)[O-].O.[Na+]` gave an IC50 greater than 46 µM.

Compound `CC(C)CN(C[C@@H](O)[C@H](Cc1ccccc1)NC(=O)O[C@H]1CO[C@H]2OCC[C@H]21)S(=O)(=O)c1ccc(N)cc1` gave an IC50 greater than 46 µM.

In turn, `CN1CCCCC1CCN1c2ccccc2Sc2ccc(S(C)=O)cc21` (configuration not stated) came in with a 50% inhibitory concentration (IC50) greater than 46 µM.

The record behind these values is the supplement of paper PMC3493320.
